Results on two compounds are retold here after US20220213119A1, “THIENOHETEROCYCLIC DERIVATIVE, PREPARATION METHOD THEREFOR AND MEDICAL USE THEREOF” (Jiangsu Hengrui Medicine Ca, Lid., priority 2019, published 2022).

By pIC50 is commonly meant the IC50 on a negative log10 scale, so that one unit is a factor of ten. Low readings indicate a large IC50, high ones a small IC50. One may read the AUC as the area under the concentration-time curve, a measure of exposure. The MRT is the average time that molecules of a dose stay in the body.

One data set concerns the target T1, ERK1 (Homo sapiens, UniProt P27361).
T1 construct: purchased R&D 1879-KS-010
The data set is described as follows: ERK1 enzyme activity test (ADP-Glo Kinase Assay). The format is biochemical. Conditions: chemiluminescence. As to the method: (§1) The purpose of this experiment is to detect the inhibitory ability of the compounds on the ERK1 enzyme activity and evaluate the activity of the compounds in vitro according to IC50. The ADP-Glo™ Kinase Assay Kit was used in this experiment. Under the action of enzyme, the substrate was phosphorylated and ADP was produced at the same time. The ADP-Glo Reagent was added to remove unreacted ATP in the reaction system. The kinase detection reagent was used to detect the ADP produced by the reaction. In the presence of the compound, the inhibition rate of the compound was calculated by measuring the signal value.
Enzyme and substrate preparation: ERK1 (1879-KS-010, R&D) and substrate (AS-61777, anaspec) were prepared to be 0.75 ng/μl and 100 μM respectively in the buffer. The enzyme solution and substrate solution were then prepared into a mixed solution at a volume ratio of 2:1 for later use. ATP was diluted to 300 μM with the buffer. The compounds were dissolved in DMSO (dimethyl sulfoxide, Shanghai Titan Scientific Co., Ltd.) to prepare a stock solution with an initial concentration of 20 mM, and then Bravo was used to prepare solutions of the compounds. Finally, a 3 μL of a mixed solution of enzyme and substrate, and 1 μL of different concentrations of the compound (the initial concentration is 50 μM, 4-fold dilution) were added to each well of the 384-well plate, and the plate was incubated at 30° C. for 10 minutes, and finally 1 μL of 300 μM ATP solution was added to each well, and the plate was incubated at 30° C. for 2 hours. Then 5 μL of ADP-Glo was added, and the plate was incubated at 30° C. for 40 minutes. Then 10 μL of Kinase detection buffer was added, and the plate was incubated at 30° C. for 40 minutes. The 384-well plate was taken out and placed in a microplate reader (BMG labtech, PHERAstar FS), and the chemiluminescence was measured by the microplate reader.
(§2) The data were processed and analyzed with Microsoft Excel, Graphpad Prism 5.
Background: ADP-Glo first removes unused ATP, then detects ADP through luciferase.

Another data set concerns the target T2, ERK2 (Homo sapiens, UniProt P28482).
T2 construct: purchased R&D 1230-KS-010
Kind of data set: ERK2 enzyme activity test (ADP-Glo Kinase Assay). The data set is classed as biochemical. Conditions: chemiluminescence. As for the experimental part:
as §1, with “ERK2” for “ERK1”
Enzyme and substrate preparation: ERK2 (1230-KS-010, R&D) and substrate (Custom peptides, Gill Biochemical) were prepared to be 0.75 ng/μl and 1500 μM in the buffer (40 mM Tris, 20 mM MgCl2, 0.1 mg/mL BSA, 50 μM DTT). The enzyme solution and substrate solution were then prepared into a mixed solution at a volume ratio of 2:1 for later use. ATP was diluted to 500 μM with the buffer. The compounds were dissolved in DMSO (dimethyl sulfoxide, Shanghai Titan Scientific Co., Ltd.) to prepare a stock solution with an initial concentration of 20 mM, and then Bravo was used to prepare solutions of the compounds. Finally, a 3 μL of a mixed solution of enzyme and substrate, and 1 μL of different concentrations of the compound (the initial concentration is 50 μM, 4-fold dilution) were added to each well of the 384-well plate, and the plate was incubated at 30° C. for 10 minutes, and finally 1 μL of 500 μM ATP solution was added to each well, and the plate was incubated at 30° C. for 2 hours. Then 5 μL of ADP-Glo was added, and the plate was incubated at 30° C. for 40 minutes. Then 10 μL of Kinase detection buffer was added, and the plate was incubated at 30° C. for 40 minutes. The 384-well plate was taken out and placed in a microplate reader (BMG labtech, PHERAstar FS), and the chemiluminescence was measured by the microplate reader.
as §2

The test system of another data set is Colo205 cells. Kind of data set: In vitro proliferation inhibition test on Colo205 tumor cells (CellTiter-Glo). The format is cell-based. Conditions: Homo sapiens, COLO 205, 72 h; Colo205 cell proliferation, 3 days of culture, CTG. As to the method:
The purpose of this experiment is to test the inhibitory activity of the compounds on the proliferation of Colo205 cells (CCL-222, ATCC) in vitro. The cells were treated with different concentrations of compounds in vitro. After 3 days of culture, the cell proliferation was detected using CTG (CellTiter-Glo® Luminescent Cell Viability Assay, Promega, catalog number: G7573) reagent. The in vitro activity of the compounds was evaluated according to the IC50 value.
In the following, taking the in vitro proliferation inhibition test method of Colo205 cells as an example, the method in the present disclosure for testing the in vitro proliferation inhibitory activity of the compounds of the present disclosure is described. This method is also applicable to, but not limited to, the in vitro proliferation inhibitory activity test on other tumor cells.
Colo205 cells were digested, centrifuged and then resuspended. The single cell suspension was mixed well, and the density of viable cells was adjusted to 5.0×10^4 cells/ml with cell culture medium (RPMI1640+2% FBS), and 95 μl/well was added to a 96-well cell culture plate. Only 100 μl medium was added to the peripheral wells of the 96-well plate. The culture plate was incubated in an incubator for 24 hours (37° C., 5% CO2).
The compound was dissolved in DMSO (dimethyl sulfoxide, Shanghai Titan Scientific Co., Ltd.) and prepared into a stock solution with an initial concentration of 20 mM. The initial concentration of the small molecule compound is 2 mM, and then 4-fold diluted into to 9 points, and the tenth point is DMSO. Another 96-well plate was taken, 90 μl of cell culture medium (RPMI1640+2% FBS) was added to each well, then 10 μl of different concentrations of the test sample was added to each well, the mixture was mixed well, and then 5 μl of different concentrations of the test sample was added to the cell culture plate, and each sample has two duplicate holes. The culture plate was incubated in the incubator for 3 days (37° C., 5% CO2). The 96-well cell culture plate was taken out, 50 μl CTG solution was added to each well, and the plate was incubated for 10 minutes at room temperature. In a microplate reader (BMG labtech, PHERAstar FS), chemiluminescence was measured with the microplate reader.
as §2
(In general: ATP-based viability assays read luminescence as a measure of living cells.)

Data set [1] is described as follows: Pharmacokinetics assay in mice. The format is in vivo. The conditions noted are these: mouse, po, C57 mice (female), intragastric, 2 mg/kg, plasma; for Vd/F: read-out: Apparent distribution volume Vz/F; for AUC: read-out: Area under curve AUC; for CL/F: read-out: Clearance CLz/F; for half-life: read-out: Half Life T1/2 (converted); for Cmax: read-out: Plasma Concentration Cmax; for MRT: read-out: Residence Time MRT. As to the method:
Mice were used as the test animal. The drug concentration in plasma at different time points was determined by LC/MS/MS method after administration of compound 3-P2, compound 4-P2, compound 9-P2, compound 10-P2, compound 12 and compound 15. The pharmacokinetic behavior of the compounds of the present disclosure in mice was studied, and the pharmacokinetic characteristics were evaluated.
54 of C57 mice (female) were equally divided into 6 groups, which were purchased from Shanghai Jiesijie Laboratory Animal Co., Ltd., with the animal production license number: SOCK (Shanghai) 2013-0006.
A certain amount of compound was weighted, followed by the addition of 5% volume of DMSO and 5% Tween 80 to dissolve it, then followed by the addition of 90% normal saline to prepare a colorless and clear solution of 0.1 mg/mL.
After an overnight fast, C57 mice were intragastrically administered the test compound at an administration dose of 2 mg/kg and an administration volume of 0.2 ml/10 g.
The mice were intragastrically administered the test compounds. 0.1mL of blood was taken before the administration and at 0.25, 0.5, 1.0, 2.0, 4.0, 6.0, 8.0, 11.0, 24.0 hours after the administration. The blood was placed in a heparinized test tube, and centrifuged at 3500 rpm for 10 minutes. The plasma was separated and stored at −20° C.
The content of the test compound in the plasma of mice after […] administration of the test compound at different concentrations was determined: 25 μl of mouse plasma at each time point after the administration was taken, followed by the addition of 50 μl of the internal standard camptothecin solution (100 ng/mL) and 200 μl of acetonitrile. The resulting solution was vortex-mixed for 5 minutes, and centrifuged for 10 minutes (4000 rpm). 4μl of the supernatant was taken from the plasma samples for LC/MS/MS analysis.

Molecules are shown by their SMILES. pIC50: −log10 of the molar value.

T1 sequence (P27361 whole entry): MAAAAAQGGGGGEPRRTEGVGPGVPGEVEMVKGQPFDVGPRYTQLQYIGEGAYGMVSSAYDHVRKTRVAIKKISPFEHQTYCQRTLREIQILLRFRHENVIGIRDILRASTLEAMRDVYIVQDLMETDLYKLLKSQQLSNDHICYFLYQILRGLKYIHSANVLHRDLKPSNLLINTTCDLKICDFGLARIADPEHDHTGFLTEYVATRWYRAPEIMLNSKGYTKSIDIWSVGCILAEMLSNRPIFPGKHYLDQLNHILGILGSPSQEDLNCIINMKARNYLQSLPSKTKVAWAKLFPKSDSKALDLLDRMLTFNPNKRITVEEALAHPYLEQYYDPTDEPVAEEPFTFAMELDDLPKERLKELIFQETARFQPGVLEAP
T2 sequence (P28482 whole entry): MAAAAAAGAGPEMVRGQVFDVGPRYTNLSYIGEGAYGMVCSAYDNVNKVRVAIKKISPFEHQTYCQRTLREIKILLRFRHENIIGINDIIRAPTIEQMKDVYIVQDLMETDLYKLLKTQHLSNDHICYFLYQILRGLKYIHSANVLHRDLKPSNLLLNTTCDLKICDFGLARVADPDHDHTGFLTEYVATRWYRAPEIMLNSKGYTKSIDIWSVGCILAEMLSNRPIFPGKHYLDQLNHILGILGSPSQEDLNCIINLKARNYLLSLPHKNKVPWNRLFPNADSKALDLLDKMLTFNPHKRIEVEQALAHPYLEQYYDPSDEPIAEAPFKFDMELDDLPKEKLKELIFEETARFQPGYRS

The compound `COc1cc(F)cc([C@@H](CO)NC(=O)[C@@H](C)N2CCc3sc(-c4nc(N[C@@H](C)CO)ncc4Cl)cc3C2=O)c1` [Example 12, (R)-2-(2-(5-Chloro-2-(((S)-1-hydroxypropan-2-yl)amino)pyrimidin-4-yl)-4-oxo-6,7-dihydrothieno[3,2-c]pyridin-5(4H)-yl)-N-((S)-1-(3-fluoro-5-methoxyphenyl)-2-hydroxyethyl)prop ionamide] showed a negative-log IC50 (pIC50) against ERK1 of 7.62. Also, the pIC50 at ERK2 was 8.70. In addition, the pIC50 in the data set with Colo205 cells is 8.30. Also, in data set [1], the Vd/F turned out to be 4.77 L/kg, the exposure (AUC) came to 1600 ng·h/mL, the CL/F was 20.8 mL/min/kg and the half-life is 2.65 h. Further, in data set [1], the Cmax was 1480 ng/mL and the MRT worked out at 1.05 h.
For the compound `COc1cc(F)cc([C@@H](CO)NC(=O)[C@@H](C)N2CCc3sc(-c4ccnc(Nc5ccnn5C)n4)cc3C2=O)c1` [Example 15, (R)-N-((S)-1-(3-Fluoro-5-methoxyphenyl)-2-hydroxyethyl)-2-(2-(2-((1-methyl-1H-pyrazol-5-yl)amino)pyrimidin-4-yl)-4-oxo-6,7-dihydrothieno[3,2-c]pyridin-5(4H)-yl)propionamide], the pIC50 at ERK1 is 8.40. For the same compound, the pIC50 against ERK2 was 8.52. The compound further had a pIC50 in the data set with Colo205 cells of 7.31. In addition, in data set [1], the Vd/F amounted to 1.76 L/kg, the AUC was determined as 1830 ng·h/mL, the CL/F amounted to 18.2 mL/min/kg and the half-life is 1.11 h. Moreover, in data set [1], the Cmax was found to be 1070 ng/mL and the mean residence time (MRT) turned out to be 1.85 h.
